Results on 2 compounds are retold here after patent publication US11365216B2, “Antiviral immunotropic agent for the treatment of acute respiratory viral infections” (PVP LABS PTE. LTD., priority 2018, dated 2022).

Where a SMILES comes first, the peptide text is derived from it. [ ]: non-standard residue; d: D form.

Data set [1] has as its system influenza A virus/New Caledonia/20/99 (H1N1). Briefly: microbe, parasite or virus in culture. The data set is classed as cell-based.
Data set [2] deals with type 5 adenovirus. Description: suppression of cytopathogenic effect of adenovirus in monolayer HeLa culture. The data set is classed as cell-based. How it is done: The work was performed using type 5 adenovirus, which was procured in 1998 from the D.I. Ivanovsky Research Institute of Virology and stored in the Specialised Collection of a branch of the 48th Central Research Institute of the Ministry of Defence of Russia—Computing Centre.
A HeLa type culture (cervical carcinoma cells) with a density of 200-250 thousand/mL was used. Semisynthetic growth media based on Hank's solution containing 7.5 and 2% bovine serum respectively were used. A 48-hour monolayer culture of HeLa cells was infected with type 5 adenovirus at a dose of 0.01 TCID50 per cell. The monolayer culture was then incubated at 37±0.5° C. for 96 hours.
The antiviral activity of the product was evaluated by the suppression of the cytopathogenic effect (CPE) of the virus in the HeLa culture after the virus was applied to an established monolayer culture of HeLa cells.
Efficacy criteria of the test drug were: CPE detection rate and inhibitory constant (Ki, %). The inhibitory constant was calculated according to the following formula: Ki=100. (Cc-Ct)/Cc, where Cc and Ct is the infectious titre of the virus in the control sample and test sample respectively.
(Cytopathic effects are the visible damage that an infection or toxin causes in cultured cells.)

Data set [3] concerns influenza A virus/Aichi/2/69 (H3N2). Briefly: influenza-induced pneumonia in mice. The data set is classed as in vivo.
In data set [4] the test system is natural killer cells. Description: functional (cytotoxic) activity of natural killer cells, radiometric assay with K-562 target cells. In kind it is cell-based, healthy donors. The following applies: 5.10^−8 M (≈0.036 μg/mL), 24 hours. The protocol: When evaluating the effect of Dalargin in vitro on the functional activity of NK cells, these cells were obtained from a suspension of peripheral blood mononuclear cells of healthy donors (n=20).
Functional activity of NK cells was determined on the basis of the cytotoxic reaction (NK can lyse cells of myeloblastoid and lymphoblastoid lines) using the radiometric assay. To perform it, cells of the K-562 myeloblastoid line at a concentration of 10^6/mL were incubated for one hour at 37° C. with ^3H-uridine at 3 μCi/mL of the cell suspension on day 2 after subcultivation. After the incubation, the cells were washed off the radiolabel in medium 199 three times. […]
In one case, after the effector cells and target cells were applied to the plates, Dalargin was added at a molar concentration of 5.10^−8 M (≈0.036 μg/mL). […] The plates were then incubated for 24 hours in a CO2 incubator at 37° C., whereupon the contents were transferred to fibreglass filters, washed, dried, placed in vials with a scintillation liquid, and radioactivity was determined using a β-particle counter. cytotoxicity index (CI) was determined using the formula CI=((A−B)/(C−B)). 100%, where A is radioactivity of target cells in the presence of effector cells, B is residual radioactivity after treating the target cells with Triton X-100, C is radioactivity in target cells in the absence of effector cells.

Data set [5] relates to neutrophils. Description: phagocytic activity of peptone-mobilised neutrophils. In kind it is in vivo, mice. The following applies: 0.2 mg/kg single dose, IM or intranasal. How it is done:
(§1) Dalargin is currently authorised for human use in the single dose range from 1 to 5 mg, which, if recalculated for mice, corresponds to z0.2-1 mg/kg. Therefore, the dose used for evaluating the efficacy of the drug in murine phagocytic peritoneal exudate cells was 0.2 mg/kg. Of additional interest was an investigation of possible effect of the route of administration of the drug on functional activity of the phagocytes.
(§2) The immunomodulating activity of the drug was evaluated by microscopy. The test was performed in 60 male BALB/c mice with a body weight of 18-22 g. The animals were allocated to 6 equal groups of 10 mice each. Two groups served as controls. The active therapy groups received Dalargin IM or intranasally at a single dose of 0.2 mg/kg. Macrophage and neutrophil extraction procedures were performed on the next day after administering the study drugs.
The mice were given an intraperitoneal injection of 3-4 mL of 10% peptone solution as a chemoattractant to cause neutrophil accumulation, and 2 hours later the mice were euthanised using chloroform 2 hours later. […]
(§3) The phagocytic activity of neutrophils was evaluated by the following parameters: phagocytic index and phagocyte number. Functional activity of macrophages was evaluated by microscopy, as well as by their ability to absorb nitroblue tetrazolium (NBT) in the activated state.

The test system of data set [6] is IFN-α. Description: interferon-inducing effect in mice (ELISA of blood plasma). In kind it is in vivo. The following applies: 24 hours after administration; Dalargin 1 mg/kg, ARBIDOL intragastrically; versus control groups. How it is done:
The experiments were performed in 40 CBA×C57BI/6/male mice with a body weight of 20-25 g. The animals were randomised in 4 groups (of 10 animals each): two active groups (receiving Dalargin or ARBIDOL) and two control groups. One control group was intended for determining baseline INF levels (before the start of the experiment), the other group was intended for determining INF levels at 24 hours after the administration of placebo (saline), ensuring the equivalence of conditions.
Dalargin was administered at a dose of 1 mg/kg, which is equivalent to a human dose of 5-6 mg. ARBIDOL was administered intragastrically as a suspension premix in 1% starch gel. Statistical analysis was performed using the Bonferroni correction for multiple testing.
IFN-α levels in the blood plasma of mice was measured at 24 hours after the administration of the drugs. Blood for interferon determination was sampled from the heart under Nembutal anaesthesia (60 mg/kg). […] IFN levels were determined using commercially available enzyme-linked immunosorbent assay (ELISA) kits manufactured by VeriKine™ (USA). […]
The test samples and diluted standards were applied to the plate in duplicate. […] The activity of bound peroxidase was measured on a UNIPLAN™ (Picon) immunoassay analyser at 450 nm.
(In an ELISA, binding on a coated surface is turned into a signal by an enzyme label.)

Data set [7] relates to TNF-α. Description: production of pro-inflammatory cytokines in peripheral blood mononuclear cell culture. The data set is classed as cell-based, healthy donors. As to conditions: 5.10^−8 M, relative to control samples (100%). How it is done: (§4) The effect of Dalargin on the synthesis of cytokines IL-1 (interleukin-1), IL-6 (interleukin-6) and TNF-α (tumour necrosis factor α) was evaluated in an in vitro experiment using a peripheral blood mononuclear cell culture of healthy donors (n=20). Stimulation with an enterobacterial polysaccharide was used to induce the production of pro-inflammatory cytokines.
(§5) In order to obtain a suspension of mononuclear cells, blood was diluted at a 1:2 ratio with medium 199, applied to a Ficoll-Paque density gradient, d=1.077 g/cm^3, and centrifuged at 400 g for 40 min. The white ring produced at the phase interface, which contained mononuclear cells, was carefully withdrawn with a Pasteur pipette and washed twice with medium 199 using 10-minute-long centrifugation (200 g). The precipitate was resuspended in a nutrient medium, counted in a Goryayev counting chamber and adjusted to the required concentration.
(§6) Dalargin was added at a molar concentration of 5.10^−8 M (Z0.036 μg/mL) to the test samples with the polysaccharide and mononuclear cell suspension. The drug was not added to control samples.
(§7) Cytokine quantitation in blood serum was performed using two-site ELISA.

Data set [8] has as its system IL-6. The data set is described as above. The data set is classed as cell-based, healthy donors. As to conditions: 5.10^−8 M, relative to control samples (100%). How it is done: as §4, §5, §6, §7
Data set [9] deals with IL-1. The data set is described as above. The data set is classed as cell-based, healthy donors. The following applies: 5.10^−8 M, relative to control samples (100%). The protocol: as §4, §5, §6, §7
Data set [10] deals with macrophages. Description: phagocytosis and NBT reduction of peritoneal exudate macrophages. In kind it is in vivo, mice. The following applies: 0.2 mg/kg single dose, IM or intranasal. The protocol:
as §1, §2
In order to isolate macrophages, the mice were euthanised on day 3 after the peptone injection. Then 3-4 mL of medium 199 with 10% of foetal bovine serum was administered intraperitoneally, and the liquid was aspirated. […]
as §3

Consider `CCOC(=O)c1c(CSc2ccccc2)n(C)c2cc(Br)c(O)c(CN(C)C)c12` [ARBIDOL, reference compound], for which the inhibition at 10 µg/mL in data set [1] (Influenza A virus, H1N1, MDCK, concentration of 10.0 μg/mL, read-out: inhibiting effect on the reproduction of epidemic virus strains) came to 100%.

Turning to `CC(C)C[C@H](NC(=O)[C@H](Cc1ccccc1)NC(=O)CNC(=O)[C@@H](C)NC(=O)[C@@H](N)Cc1ccc(O)cc1)C(=O)N[C@@H](CCCNC(=N)N)C(=O)O` [Dalargin, tyrosyl-D-alanyl-glycyl-phenylalanyl-leucyl-arginine] (H-Y[dA]GFLR-OH), the protective efficacy in [2] (10 μg/mL) is listed as 40.0%. Besides, in [2] (added to the maintenance medium), the “growth of protective efficacy, administration 24 h before challenge relative to 2 hours after challenge” value was 10-20%. Moreover, the “protection of cells from the cytopathogenic effect of the virus” value in data set [2] (administered 24 h before challenge, 0.01 TCID50 per cell, concentrations of 100, 20 and 10) was “almost completely protected”. In data set [3] (Dalargin 2 mg/kg/day IM or intranasal), the “efficacy relative to Arbidol in terms of mean lifetime and survival rate” value is given as “greater efficacy”. Also, the “mortality due to influenza-induced pneumonia” value in data set [3] (IM or intranasal 2 mg/kg/day for 5 days, relative to placebo) is “reduces the mortality”. In addition, in data set [3] (relative to control/placebo, weighed on days 3, 5 and 15), the weight loss entry is “reduces weight loss”. In data set [4], the “effect on cytotoxic activity of natural killer cells” value is on record as “immunotropic potential”. In addition, the “phagocytic activity (phagocytosis) of peptone-mobilised neutrophils” value in data set [5] was “capable of increasing the phagocytic activity”. Moreover, the “IFN-α level in blood plasma/serum” value in [6] was “significant production”. Also, the “lipopolysaccharide-induced production of TNF-α” value in data set [7] is “significant suppression”. In addition, in data set [8], the “lipopolysaccharide-induced production of IL-6” value is on record as “significant suppression”. The “lipopolysaccharide-induced production of IL-1” value in [9] is reported as “significant suppression”. For the same compound, the “phagocytosis of peritoneal exudate macrophages, ability to reduce NBT” value in data set [10] is listed as “stimulating effect”. The “MIC values (MIC50, concentration inhibiting virus reproduction by 50%), comparison” value in [1] (MDCK tissue culture, hexapeptide versus ARBIDOL) is given as “lower MIC values”.
